Reference: paper PMC1977344 (British Journal of Cancer, 1992)
Where two headings read alike, the source gives them in different places.

Tests used:
[1] = cited from earlier work
[2] = target: T1, total mu (mu 1 and mu 2) receptor (Rattus norvegicus, UniProt P33535); assay: Radioligand binding, total mu assay (3H-DAGO displacement, rat brain P2 homogenate); parameters: species or system Wistar rats; specific binding of the 3H-ligand remaining, total mu assay: dose or concentration left out as unconfirmed
T1 construct: from tissue
T1 sequence (P33535 whole entry): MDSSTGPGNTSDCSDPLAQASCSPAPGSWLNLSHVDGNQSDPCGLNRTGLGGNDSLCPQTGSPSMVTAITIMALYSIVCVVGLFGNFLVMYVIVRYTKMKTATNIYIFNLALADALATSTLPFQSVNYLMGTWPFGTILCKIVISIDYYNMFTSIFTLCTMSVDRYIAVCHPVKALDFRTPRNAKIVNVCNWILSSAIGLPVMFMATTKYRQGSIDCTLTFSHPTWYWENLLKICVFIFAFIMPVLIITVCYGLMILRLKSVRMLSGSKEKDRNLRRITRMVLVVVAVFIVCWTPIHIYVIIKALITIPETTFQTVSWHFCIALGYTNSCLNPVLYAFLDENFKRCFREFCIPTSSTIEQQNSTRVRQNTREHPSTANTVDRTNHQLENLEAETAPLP

mu 1 receptor = mu 1 receptor (Rattus norvegicus, UniProt P33535); assay: Radioligand binding, mu 1 assay (3H-DSLET displacement with DPDPE block, rat brain P2 homogenate); parameters: species or system Wistar rats
mu 1 receptor, sequence (P33535 whole entry): as above

delta receptor [3] = target: T2, delta receptor (Rattus norvegicus, UniProt P33533); assay: Radioligand binding, delta assay (3H-DSLET displacement with DAGO block, rat brain P2 homogenate); parameters: species or system Wistar rats
T2 construct: from tissue
T2 sequence (P33533 whole entry): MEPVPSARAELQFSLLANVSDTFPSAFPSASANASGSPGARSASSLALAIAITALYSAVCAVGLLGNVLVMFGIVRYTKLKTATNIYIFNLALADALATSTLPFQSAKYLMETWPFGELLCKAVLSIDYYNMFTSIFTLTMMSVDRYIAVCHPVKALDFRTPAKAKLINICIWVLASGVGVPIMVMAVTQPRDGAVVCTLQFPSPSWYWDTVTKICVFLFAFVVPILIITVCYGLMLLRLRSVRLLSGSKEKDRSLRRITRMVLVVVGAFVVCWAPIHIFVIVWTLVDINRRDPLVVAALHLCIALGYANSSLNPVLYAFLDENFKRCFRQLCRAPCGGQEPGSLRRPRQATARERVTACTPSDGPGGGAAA

mu 2 receptor [4] = target: T3, mu 2 receptor (Rattus norvegicus, UniProt P33535); settings: for fold lower affinity of M6G than morphine at the mu 2 receptor (IC50 ratio): from mean IC50s; for specific binding of the 3H-ligand remaining, mu 2 assay: test substance at 5 µM (5 pM in methods)
T3 sequence (P33535 whole entry): as the sequence (P33535 whole entry) above

kappa receptor = system: kappa receptor; parameters: method as in Pasternak et al., 1987; settings: not yet accurately determined; ref Pasternak et al., 1987; cited from earlier work
delta receptor [5] = system: delta receptor; parameters: method as in Oguri et al. (1987); settings: 3H-leucine enkephalin; ref Oguri et al. (1987); cited from earlier work
[6] = ref Shimomum et al. (1971); cited from earlier work
[7] = normal volunteers; ref Thompson et al., 1990; cited from earlier work
[8] = open study in man; ref Osborne et al., 1989; cited from earlier work
mu 2 receptor [9] = target: T3, mu 2 receptor; assay: biochemical; settings: IC50 mu 2 receptor
[10] = test substance at 5 µM (5 pM in methods)

Compound: CN1CC[C@]23c4c5ccc(O[C@@H]6O[C@H](C(=O)O)[C@@H](O)[C@H](O)[C@H]6O)c4O[C@H]2[C@@H](O)C=C[C@H]3[C@H]1C5 [M3G, morphine 3-glucuronide]
- analgesic activity ([1]; ref Osborne et al., 1986, Hanks et al., 1987, Hoskin & Hanks, 1990): devoid of analgesic activity

Compound: CN1CC[C@]23c4c5ccc(O)c4O[C@H]2[C@@H](O[C@@H]2O[C@H](C(=O)O)[C@@H](O)[C@H](O)[C@H]2O)C=C[C@H]3[C@H]1C5 [M6G, morphine 6-glucuronide]
- IC50 [2]: 80 nM
- IC50 (mu 1 receptor; read-out: IC50 mu 1 receptor, whole brain preparations, P2 fraction of whole rat brain homogenate, single assay): 170 nM
- IC50 (delta receptor [3]): 75 nM
- fold lower affinity of M6G than morphine at the mu 2 receptor (IC50 ratio) (mu 2 receptor [4]): 4.8 fold
- fold lower affinity of M6G than morphine at the mu 2 receptor (IC50 ratio) (mu 2 receptor [4]; listed as Morphine 6-glucuronide): 4 fold
- systemic analgesic potency advantage over morphine ([1]; systemic, ref Shimomura et al., 1971, Abbott & Palmour, 1988): 3 fold
- affinity for the kappa receptor (kappa receptor): thought to be low
- affinity for the delta receptor relative to morphine (delta receptor [5]): slightly higher affinity
- systemic LD50 relative to that of morphine [6]: 88%
- nausea and sedation versus morphine [7]: less nausea and no sedation
- respiratory depression versus equipotent dose of morphine [7]: significantly less respiratory depression
- nausea or sedation at doses sufficient to give significant pain relief [8]: no nausea or sedation was seen
- IC50 (mu 2 receptor [9]; brain minus hypothalami, P2 fraction, 3H-DAGO 1.5 nM, DSLET 5 nM block, mean ± SEM): 82 nM
- IC50 (mu 2 receptor [9]; whole brain preparations, P2 fraction of whole rat brain homogenate, single assay): 66 nM

Compound: CN1CC[C@@]23CCCC[C@@H]2[C@@H]1Cc1ccc(O)cc13 [dextrorphan]
- specific binding of the 3H-ligand remaining, total mu assay [2]: 70%
- specific binding of the 3H-ligand remaining, mu 1 assay (mu 1 receptor; [10]): no inhibition was observed
- specific binding of the 3H-ligand remaining, delta assay (delta receptor [3]; [10]): no inhibition was observed
- specific binding of the 3H-ligand remaining, mu 2 assay (mu 2 receptor [4]): 72%

Compound: CN1CC[C@]23CCCC[C@H]2[C@H]1Cc1ccc(O)cc13 [levorphanol]
- specific binding of the 3H-ligand remaining, total mu assay [2]: 0%
- specific binding of the 3H-ligand remaining, mu 1 assay (mu 1 receptor): 1%
- specific binding of the 3H-ligand remaining, delta assay (delta receptor [3]): 0%
- specific binding of the 3H-ligand remaining, mu 2 assay (mu 2 receptor [4]): 28%
